Patent publication US8058284B2, “[4-(6-halo-7-substituted-2,4-dioxo-1,4-dihydro-2H-quinazolin-3-yl)-phenyl]-5-chloro-thiophen-2-yl-sulfonylureas and forms and methods related thereto” (Portola Pharmaceuticals, Inc., priority 2005, dated 2011)
Where two headings read alike, the source gives them in different places.

Legend:
[1] = system: ADP-induced human platelet aggregation (human platelet-rich plasma); assay: inhibition of ADP-mediated platelet aggregation in platelet-rich plasma (PRP assay); type: cell-based
Description: Platelet-rich plasma (PRP) is prepared by centrifugation of whole blood at 160×g for 20 minutes at room temperature. […] PPP is prepared by centrifugation of the remaining blood sample (after removal of PRP) for 20 minutes at 800×g. This preparation of PRP can subsequently be used for aggregation assays in either a 96-well plate or standard cuvette aggregometry.
J. Clin. Pathol. […] All steps are performed at room temperature. […] The plates are then agitated for 5 min on a microtiter plate shaker and the 5 minute reading is obtained in the plate reader. […] IC50s were derived by non-linear regression analysis.

[2] = molecular target: T1, P2Y12 receptor on platelets (Homo sapiens, UniProt Q9H244); assay: platelet ADP receptor binding assay (ARB): inhibition of [3H]2-MeS-ADP binding to platelets; conditions: apyrase-washed human platelets
T1 construct: endogenous in cells; host or cells: human platelets, apyrase-washed: outdated from hospital blood banks, or fresh
Description: 1. The Ability of Candidate Molecules to Inhibit the Binding of [3H]2-MeS-ADP to the P2Y12 Receptor on Platelets was Determined Using a Radioligand Binding Assay.
Utilizing this assay the potency of inhibition of such compounds with respect to [^3H]2-MeS-ADP binding to whole platelets is determined. Under the conditions described in II (3) below, the binding of [^3H]2-MeS-ADP is solely due to the interaction of this ligand with the P2Y12 receptor, in that all the specific binding measured in this assay is compatible with a P2Y12 antagonist (i.e., the specific binding is reduced to background levels by competition with an excess of P2Y12 antagonist, with no competition of binding when a P2Y1 antagonist is pre-incubated with the platelet preparation). […]
A platelet ADP receptor binding assay (ARB) using the tritiated potent agonist ligand [^3H]2-MeS-ADP (Jantzen, H. M. et al. (1999) Thromb. Hemost. 81:111-117) has been adapted to the 96-well microtiter format. […] Total binding is determined in the absence of test compounds. […] The platelet-bound radioactivity on the filtermats is determined in a scintillation counter (Microbeta 1450, Wallac Inc., Gaithersburg, Md.). Specific binding is determined by subtraction of non-specific binding from total binding, and specific binding in the presence of test compounds is expressed as % of specific binding in the absence of test compound dilutions. […]

T1 sequence (Q9H244 whole entry): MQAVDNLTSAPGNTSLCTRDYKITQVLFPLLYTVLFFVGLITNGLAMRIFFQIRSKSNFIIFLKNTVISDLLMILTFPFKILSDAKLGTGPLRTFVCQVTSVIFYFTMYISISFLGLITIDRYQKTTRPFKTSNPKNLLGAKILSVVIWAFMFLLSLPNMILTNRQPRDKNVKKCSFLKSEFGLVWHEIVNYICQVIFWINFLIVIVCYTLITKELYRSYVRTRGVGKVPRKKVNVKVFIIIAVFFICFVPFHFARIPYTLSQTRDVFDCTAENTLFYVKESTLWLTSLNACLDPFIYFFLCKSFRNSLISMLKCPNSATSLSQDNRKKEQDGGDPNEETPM

IC50 [1]	Structure (SMILES)	IC50 ([1]; Platelet)	IC50 [2]
–	CNc1cc2[nH]c(=O)n(-c3ccc(NC(=O)NS(=O)(=O)c4ccc(Cl)s4)cc3)c(=O)c2cc1F [Example 2]	< 10 µM	< 0.05 µM
10 to 30 µM	CNc1cc2[nH]c(=O)n(-c3ccc(NC(=O)NS(=O)(=O)c4ccc(Cl)s4)cc3)c(=O)c2cc1Cl [Example 3, [4-(6-chloro-7-methylamino-2,4-dioxo-1,4-dihydro-2H-quinazolin-3-yl)-phenyl]-5-chloro-thiophen-2-yl-sulfonylurea]	–	0.05 to 0.5 µM
